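Cultured in 96-well plates, cells were exposed to test compound for 48 hours across five concentrations. Here, GI50 denotes the concentration required for 50% inhibition of growth. Definition used: TGI = concentration required for complete inhibition of growth.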
Tests used:
Test in all cases: DTP human tumour cell line panel, 48 h
[1] = system: DU-145 prostate
[2] = system: M14 melanoma
[3] = system: OVCAR-4 ovarian
[4] = system: OVCAR-8 ovarian
[5] = system: PC-3 prostate
[6] = system: SK-MEL-2 melanoma
[7] = system: SN12C renal
[8] = system: SNB-75 CNS
[9] = system: SW-620 colon
[10] = system: HOP-62 NSCLC

Compound | GI50 [1] [µM] | TGI [1] [µM] | GI50 [2] [µM] | TGI [2] [µM] | GI50 [3] [µM] | TGI [3] [µM] | GI50 [4] [µM] | TGI [4] [µM] | GI50 [5] [µM] | TGI [5] [µM] | GI50 [6] [µM] | TGI [6] [µM] | GI50 [7] [µM] | TGI [7] [µM] | GI50 [8] [µM] | TGI [8] [µM] | GI50 [9] [µM] | TGI [9] [µM] | GI50 [10] [µM] | TGI [10] [µM]
Cc1ccc(-c2c3c([nH]c(=O)c2C#N)-c2cc(F)ccc2OC3)cc1 | > 100 | > 100 | 29.9 | > 100 | > 100 | > 100 | > 100 | > 100 | 88.7 | > 100 | 55.4 | 98.4 | > 100 | > 100 | > 100 | > 100 | > 100 | > 100 |  | 
CCCCC/C(C=C(C#N)C#N)=C/c1ccccc1 | 5.23 | 24.6 | 2.45 | 7.29 | 7.74 | > 55.8 | 3.34 | > 100 | 3.13 | 12.2 | 17.4 | 41.3 | 3.74 | 16.9 | 12.4 | 27.7 | 3.12 | 10.9 | 6.98 | 17.4
COc1ccc(C2=NN(C(=O)c3cc(OC)c(OC)c(OC)c3)C(c3ccc(C#N)cc3)C2)cc1OC (centres undefined) | 2.98 | > 39 | 1.8 | 10.4 | 3.41 | > 65.1 | 3.26 | > 42.7 | 1.94 | > 52.3 | 1.58 | > 20.3 | 4.47 | > 100 | 0.586 | 19.9 | 1.26 | > 100 | 1.53 | 36.9
CC1=C(C(=O)Nc2ccc3[nH]ncc3c2)C(c2ccc3ccccc3c2)CC(=O)N1 (centres undefined) | > 25 | > 25 | > 25 | > 25 | 13.4 | > 25 | > 25 | > 25 | > 25 | > 25 | > 25 | > 25 | > 25 | > 25 | 1.54 | > 20.1 | 9.97 | > 25 | 6.46 | > 25
COc1ccc2c(c1)c(-c1nc(-c3cn(C)c4ncccc34)cs1)cn2CCCN1CCCCC1 | 1.62 | 2.98 | 1.65 | 3.11 | 1.87 | 4.64 |  |  | 1.76 | 3.27 | 2.07 | 4.46 | 1.71 | 3.17 | 1.34 | 2.72 | 1.9 | 3.63 |  | 
CN(C)CCNc1cc(-c2ccccc2)nc2ccccc12 | 5.04 | 22.2 | 10.3 | 24.8 | 7.45 | 37.4 | 4.1 | 22 | 4.61 | 24.9 | 11.3 | 24.9 | 6.55 | 44.1 | 9.57 | 23.4 | 3.94 | 21.5 | 6.02 | 32.9
